Earlier results as cited in patent US8309607B2, “Rapid release irbesartan-containing pharmaceutical composition” (ratiopharm GmbH, priority 2006, dated 2012).

Details: in vivo

**Q.** With `CCCCC1=NC2(CCCC2)C(=O)N1Cc1ccc(-c2ccccc2-c2nnn[nH]2)cc1` [Irbesartan, 2-n-butyl-4-spirocyclopentane-1-[(2′-(tetrazol-5-yl)biphenyl-4-yl)methyl]-2-imidazolin-5-one] as the compound, how does the oral bioavailability read?
**A.** acceptable oral bioavailability
